Experimental findings from ChEMBL document CHEMBL5620436, “Structure-Guided Design and Optimization of Covalent VHL-Targeted Sulfonyl Fluoride PROTACs” (J Med Chem, 2024) are described below.

Series [1] has as its target T1, von Hippel-Lindau disease tumor suppressor/Bromodomain-containing protein 4 (Homo sapiens, UniProt O60885+P40337). The experiment in a line: PROTAC activity at HiBit tagged BRD4/VHL E3 ligase in human HEK293 cells assessed as degradation of BRD4 preincubated with epoxomicin for 3 hrs followed by compound addition and measured after 18 hrs by Nano-Glo HiBiT assay. The series is classed as cell-based. Background: With HiBiT, luminescence reflects the tagged protein that the partner subunit can reach.

Another series has as its system HEK293. The experiment in a line: Cytotoxicity against human HEK293 cells harbouring HiBit tagged BRD4 assessed as reduction in cell viability measured after 18 hrs by cell titer glo assay. In kind it is toxicity, cell-based. The note with it: hek293, 18 h.
Series [2] addresses T1, von Hippel-Lindau disease tumor suppressor/Bromodomain-containing protein 4. The experiment in a line: PROTAC activity at HiBit tagged BRD4/VHL E3 ligase in human HEK293 cells assessed as degradation of BRD4 incubated for 18 hrs by Nano-Glo HiBiT assay. In kind it is cell-based.
The target is the same in series [3]. The experiment in a line: PROTAC activity at HiBit tagged BRD4/VHL E3 ligase in human HEK293 cells assessed as degradation of BRD4 preincubated with MLN4924 for 3 hrs followed by compound addition and measured after 18 hrs by Nano-Glo HiBiT assay. In kind it is cell-based.
In series [4] the target is T2, von Hippel-Lindau disease tumor suppressor (Homo sapiens, UniProt P40337). The experiment in a line: Inhibition of N-terminal 6his tagged human VHL (1 to 213 residues) expressed in HEK293 cells using NanoBRET NanoGlo substrate by NanoBRET assay. In kind it is cell-based. In general terms: BRET reads energy transfer from a luciferase to a nearby fluorophore.
The target of series [5] is T3, von Hippel-Lindau disease tumor suppressor/Androgen receptor (Homo sapiens) (UniProt P10275+P40337). The experiment in a line: PROTAC activity at VHL/HiBit tagged AR in human LNCaP cells assessed as degradation of AR preincubated with epoxomicin for 3 hrs followed by compound addition and measured after 18 hrs by Nano-Glo HiBiT assay. In kind it is cell-based.
Series [6] addresses T3, von Hippel-Lindau disease tumor suppressor/Androgen receptor (Homo sapiens). The experiment in a line: PROTAC activity at VHL/HiBit tagged AR in human LNCaP cells assessed as degradation of AR preincubated with MLN4924 for 3 hrs followed by compound addition and measured after 18 hrs by Nano-Glo HiBiT assay. In kind it is cell-based.
Another series has as its system LNCaP. The experiment in a line: Cytotoxicity against human LNCaP cells harbouring HiBit tagged AR assessed as reduction in cell viability measured after 16 hrs by cell titer glo assay. In kind it is functional, cell-based.
The target in series [7] is T2, von Hippel-Lindau disease tumor suppressor. The experiment in a line: Inhibition of VHL in HEK293T cells assessed as target engagement incubated for 2 hrs by Streptavidin-pull down blotting assay. The note with it: dose 1-100 µM. The series is classed as cell-based.

Active and inactive are the calls of the source. The rule behind the calls is not given here. Bounds are passed on as bounds.

Regarding `COCC(COC)n1c(-c2cc(C)c(=O)n(C)c2)nc2cc(C3CCN(C(=O)COCCOCCOCCNC(=O)C[C@H](NC(=O)[C@@H]4C[C@@H](S(=O)(=O)F)CN4C(=O)[C@@H](c4cc(C)no4)C(C)C)c4ccc(-c5scnc5C)cc4)CC3)ccc21`, the outcome in series [1] and in [3] was inactive. The Activity entry in the series with HEK293 is “Non-Toxic”. Also, the EC50 in series [2] turned out to be 17.2 µM.

Turning to `CC(=O)N[C@H](C(=O)N1C[C@H](S(=O)(=O)F)C[C@H]1C(=O)NCc1ccc(-c2scnc2C)cc1)C(C)(C)C`, the IC50 in [4] was > 100 µM.

Regarding `Cc1cc([C@H](C(=O)N2C[C@H](S(=O)(=O)F)C[C@H]2C(=O)N[C@@H](CC(=O)N2CCC(C#Cc3ccc(C(=O)N[C@H]4C(C)(C)[C@H](Oc5ccc(C#N)c(Cl)c5)C4(C)C)cc3)CC2)c2ccc(-c3scnc3C)cc2)C(C)C)on1`, the result (in [5]; in [6]; in the series with LNCaP) was inactive.

Consider `Cc1cc([C@H](C(=O)N2C[C@H](S(=O)(=O)F)C[C@H]2C(=O)N[C@@H](CC(=O)N2CCC(C#Cc3ccc(C(=O)N[C@H]4C(C)(C)[C@H](Oc5ccc(C#N)c(C(F)(F)F)c5)C4(C)C)cc3)CC2)c2ccc(-c3scnc3C)cc2)C(C)C)on1`, for which the outcome (in [5]; in series [6]; with LNCaP) was inactive.

Regarding `Cc1cc([C@H](C(=O)N2C[C@H](S(=O)(=O)F)C[C@H]2C(=O)N[C@@H](CC(=O)NCCOCCOCCOCCNC(=O)CCCC[C@H]2SC[C@@H]3NC(=O)N[C@@H]32)c2ccc(-c3scnc3C)cc2)C(C)C)on1`, the inhibition entry in series [7] was “Dose-Dependent Effect”.

As usually defined, the EC50 is the midpoint of the concentration-response curve. As usually defined, the IC50 is the point on the concentration scale where inhibition reaches its midpoint.
